The record followed here is ChEMBL document CHEMBL3400082, “Synthesis of 6-aryl-substituted sulfocoumarins and investigation of their carbonic anhydrase inhibitory action” (Bioorg Med Chem, 2015).

The target of one assay is Carbonic anhydrase 1 (Homo sapiens, UniProt P00915). Description: Inhibition of human cytosolic carbonic anhydrase 1 by stopped-flow CO2 hydrase assay.
In another assay the target is Carbonic anhydrase 2 (Homo sapiens, UniProt P00918). The assay can be described thus: Inhibition of human cytosolic carbonic anhydrase 2 by stopped-flow CO2 hydrase assay.
A further assay has as its target Carbonic anhydrase 9 (Homo sapiens, UniProt Q16790). Description: Inhibition of human tumor-associated carbonic anhydrase 9 by stopped-flow CO2 hydrase assay.

Each structure is given as a SMILES string. pKi: −log10 of the molar value.

Sequence of Carbonic anhydrase 1 (P00915 whole entry): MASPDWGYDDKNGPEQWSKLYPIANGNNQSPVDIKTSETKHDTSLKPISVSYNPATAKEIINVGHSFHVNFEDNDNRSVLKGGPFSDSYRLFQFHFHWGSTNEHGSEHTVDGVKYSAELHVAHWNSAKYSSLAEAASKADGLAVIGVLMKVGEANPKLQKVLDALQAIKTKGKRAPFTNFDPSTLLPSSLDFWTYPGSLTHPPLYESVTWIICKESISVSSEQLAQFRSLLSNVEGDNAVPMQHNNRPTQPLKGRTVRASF

Take `O=S1(=O)C=Cc2cc(-c3ccccc3)ccc2O1`: the negative-log Ki (pKi) is less than 5.00 at Carbonic anhydrase 1, less than 5.00 on Carbonic anhydrase 2 and 7.22 at Carbonic anhydrase 9.
In the case of `Cc1ccc(-c2ccc3c(c2)C=CS(=O)(=O)O3)cc1`, the negative logarithm of the Ki (pKi) is less than 5.00 on Carbonic anhydrase 1, less than 5.00 at Carbonic anhydrase 2 and 7.11 at Carbonic anhydrase 9.
As to `Cc1ccccc1-c1ccc2c(c1)C=CS(=O)(=O)O2`, the pKi is less than 5.00 on Carbonic anhydrase 1, less than 5.00 at Carbonic anhydrase 2 and 7.15 at Carbonic anhydrase 9.
As for `O=S1(=O)C=Cc2cc(-c3ccc(F)cc3)ccc2O1`, the pKi at Carbonic anhydrase 1 was less than 5.00; at Carbonic anhydrase 2 it was less than 5.00; at Carbonic anhydrase 9, 7.02.
In the case of `O=S1(=O)C=Cc2cc(-c3cccc(F)c3)ccc2O1`, the values for the pKi at Carbonic anhydrase 1, at Carbonic anhydrase 2 and on Carbonic anhydrase 9 were less than 5.00, less than 5.00 and 7.99, respectively.
Regarding `COc1ccc(-c2ccc3c(c2)C=CS(=O)(=O)O3)cc1`, the pKi at Carbonic anhydrase 1 is less than 5.00; at Carbonic anhydrase 2 it was less than 5.00; on Carbonic anhydrase 9, 7.15.
Take `CC(C)Oc1ccc(-c2ccc3c(c2)C=CS(=O)(=O)O3)cc1`: the values for the pKi at Carbonic anhydrase 1, on Carbonic anhydrase 2 and on Carbonic anhydrase 9 were less than 5.00, less than 5.00 and 8.01, respectively.
On to `O=S1(=O)C=Cc2cc(-c3ccc(OC(F)(F)F)cc3)ccc2O1`, for which the pKi at Carbonic anhydrase 1 is less than 5.00; at Carbonic anhydrase 2, less than 5.00; at Carbonic anhydrase 9 it was 7.12.
Consider `CC(C)(C)c1ccc(-c2ccc3c(c2)C=CS(=O)(=O)O3)cc1`, for which the results for the pKi at Carbonic anhydrase 1, on Carbonic anhydrase 2 and on Carbonic anhydrase 9 were less than 5.00, less than 5.00 and 8.04, respectively.
For the compound `O=S1(=O)C=Cc2cc(-c3ccc(C(F)(F)F)cc3)ccc2O1`, the pKi was less than 5.00 on Carbonic anhydrase 1, less than 5.00 on Carbonic anhydrase 2 and 7.53 at Carbonic anhydrase 9.
On to `O=S1(=O)C=Cc2cc(-c3cccc(C(F)(F)F)c3)ccc2O1`, for which the pKi was less than 5.00 at Carbonic anhydrase 1, less than 5.00 at Carbonic anhydrase 2 and 8.01 on Carbonic anhydrase 9.
In the case of `COC(=O)c1cccc(-c2ccc3c(c2)C=CS(=O)(=O)O3)c1`, the figures for the pKi on Carbonic anhydrase 1, on Carbonic anhydrase 2 and on Carbonic anhydrase 9 were less than 5.00, less than 5.00 and 8.05, respectively.
For `O=S1(=O)C=Cc2cc(-c3ccc(Cl)c(Cl)c3)ccc2O1`, the results for the negative-log Ki (pKi) at Carbonic anhydrase 1, at Carbonic anhydrase 2 and on Carbonic anhydrase 9 were less than 5.00, less than 5.00 and 8.03, respectively.

Broadly, the pKi is −log10 of the Ki, conventionally taken in molar units.
